For test [1], the species on record is Sus scrofa. The test is described as follows: Inhibition of porcine kidney alpha-trehalase assessed as release of p-nitrophenol at 1000 uM using p-nitrophenyl glycoside as substrate by spectrometric assay relative to control.
For test [2], the target named is Sucrase-isomaltase, intestinal (Rattus norvegicus, UniProt P23739). The test is described as follows: Inhibition of rat intestinal sucrase assessed as release of p-nitrophenol using p-nitrophenyl glycoside as substrate by spectrometric assay.
Test [3] concerns Prunus dulcis. The test is described as follows: Inhibition of almond beta-glucosidase assessed as release of p-nitrophenol at 1000 uM using p-nitrophenyl glycoside as substrate by spectrometric assay relative to control.
For test [4], the system named is Saccharomyces cerevisiae. Put plainly: Inhibition of yeast alpha-glucosidase assessed as release of p-nitrophenol at 1000 uM using p-nitrophenyl glycoside as substrate by spectrometric assay relative to control.
Test [5] concerns Oryza sativa. The test is described as follows: Inhibition of rice alpha-glucosidase assessed as release of p-nitrophenol at 1000 uM using p-nitrophenyl glycoside as substrate by spectrometric assay relative to control.
The target in test [6] is T1, Lysosomal alpha-glucosidase (Homo sapiens, UniProt P10253). The test is described as follows: Inhibition of human lysosomal alpha glucosidase assessed as release of p-nitrophenol at 1000 uM using p-nitrophenyl glycoside as substrate by spectrometric assay relative to control.
The species entered for test [7] is Bos taurus. The test is described as follows: Inhibition of bovine liver beta-glucosidase assessed as release of p-nitrophenol at 1000 uM using p-nitrophenyl glycoside as substrate by spectrometric assay relative to control.
In test [8] the target is Alpha-galactosidase (Coffea arabica) (UniProt Q42656). Put plainly: Inhibition of coffee beans alpha-galactosidase assessed as release of p-nitrophenol at 1000 uM using p-nitrophenyl glycoside as substrate by spectrometric assay relative to control.
The species entered for test [9] is Bos taurus. Put plainly: Inhibition of bovine liver beta-galactosidase assessed as release of p-nitrophenol at 1000 uM using p-nitrophenyl glycoside as substrate by spectrometric assay relative to control.
In test [10] the target is T2, Alpha-mannosidase (Canavalia ensiformis) (UniProt C0HJB3).
T2 sequence (whole entry): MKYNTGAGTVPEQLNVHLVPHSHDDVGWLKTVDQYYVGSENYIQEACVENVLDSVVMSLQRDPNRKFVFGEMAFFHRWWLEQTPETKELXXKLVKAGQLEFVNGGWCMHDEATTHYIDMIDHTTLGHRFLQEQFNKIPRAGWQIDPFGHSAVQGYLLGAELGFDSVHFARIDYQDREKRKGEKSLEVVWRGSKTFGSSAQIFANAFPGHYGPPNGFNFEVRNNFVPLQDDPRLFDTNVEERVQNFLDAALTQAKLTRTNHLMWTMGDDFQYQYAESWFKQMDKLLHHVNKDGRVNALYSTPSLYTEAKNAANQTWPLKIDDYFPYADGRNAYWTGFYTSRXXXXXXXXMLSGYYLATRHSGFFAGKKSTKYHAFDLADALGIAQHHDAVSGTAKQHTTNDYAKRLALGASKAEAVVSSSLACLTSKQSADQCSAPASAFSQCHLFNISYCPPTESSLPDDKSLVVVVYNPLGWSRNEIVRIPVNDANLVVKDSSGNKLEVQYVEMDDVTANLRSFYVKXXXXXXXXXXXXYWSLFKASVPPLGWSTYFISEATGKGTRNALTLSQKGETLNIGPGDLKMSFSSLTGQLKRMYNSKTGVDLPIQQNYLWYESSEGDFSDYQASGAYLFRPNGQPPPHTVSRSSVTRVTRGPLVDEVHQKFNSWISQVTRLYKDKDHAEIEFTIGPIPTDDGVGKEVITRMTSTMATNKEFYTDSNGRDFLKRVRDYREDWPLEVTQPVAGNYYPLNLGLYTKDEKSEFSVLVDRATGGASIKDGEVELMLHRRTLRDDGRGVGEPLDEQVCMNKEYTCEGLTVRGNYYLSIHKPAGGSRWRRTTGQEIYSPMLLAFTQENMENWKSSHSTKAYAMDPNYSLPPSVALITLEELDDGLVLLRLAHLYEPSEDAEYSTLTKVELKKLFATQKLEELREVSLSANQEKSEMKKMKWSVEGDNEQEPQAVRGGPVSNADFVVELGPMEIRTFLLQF
Put plainly: Inhibition of jack bean alpha-mannosidase assessed as release of p-nitrophenol at 1000 uM using p-nitrophenyl glycoside as substrate by spectrometric assay relative to control.

Test [11] relates to Helix pomatia. The test is described as follows: Inhibition of snail beta-mannosidase assessed as release of p-nitrophenol at 1000 uM using p-nitrophenyl glycoside as substrate by spectrometric assay relative control.
The target of test [12] is T3, Tissue alpha-L-fucosidase (Bos taurus) (UniProt Q2KIM0).
T3 sequence (whole entry): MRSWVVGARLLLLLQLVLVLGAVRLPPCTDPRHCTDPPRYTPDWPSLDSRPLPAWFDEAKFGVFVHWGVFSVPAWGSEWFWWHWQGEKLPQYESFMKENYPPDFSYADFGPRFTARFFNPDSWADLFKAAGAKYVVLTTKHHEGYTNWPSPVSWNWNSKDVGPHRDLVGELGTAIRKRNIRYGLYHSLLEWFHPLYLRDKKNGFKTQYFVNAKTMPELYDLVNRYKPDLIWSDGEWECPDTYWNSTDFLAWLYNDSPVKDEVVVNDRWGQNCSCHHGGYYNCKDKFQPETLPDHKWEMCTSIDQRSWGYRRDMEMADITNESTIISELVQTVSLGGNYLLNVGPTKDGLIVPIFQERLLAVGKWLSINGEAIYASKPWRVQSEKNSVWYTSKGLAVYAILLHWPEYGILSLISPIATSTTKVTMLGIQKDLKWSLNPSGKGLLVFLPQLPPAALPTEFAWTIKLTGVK
The test is described as follows: Inhibition of bovine kidney alpha-L-fucosidase assessed as release of p-nitrophenol at 1000 uM using p-nitrophenyl glycoside as substrate by spectrometric assay relative to control.

The subject of test [13] is Aspergillus niger. Put plainly: Inhibition of Aspergillus niger amyloglucosidase assessed as release of p-nitrophenol at 1000 uM using p-nitrophenyl glycoside as substrate by spectrometric assay relative to control.
For test [14], the system named is Penicillium decumbens. The test is described as follows: Inhibition of Penicillium decumbens alpha-L-rhamnosidase assessed as release of p-nitrophenol at 1000 uM using p-nitrophenyl glycoside as substrate by spectrometric assay relative to control.
Test [15] has as its system Escherichia coli. Put plainly: Inhibition of Escherichia coli beta-glucuronidase assessed as release of p-nitrophenol at 1000 uM using p-nitrophenyl glycoside as substrate by spectrometric assay relative to control.
The species entered for test [16] is Bos taurus. Put plainly: Inhibition of bovine liver beta-glucronidase assessed as release of p-nitrophenol at 1000 uM using p-nitrophenyl glycoside as substrate by spectrometric assay relative to control.
Test [17] is filed under the species Rattus norvegicus. The test is described as follows: Inhibition of rat intestinal alpha-trehalase assessed as release of p-nitrophenol at 1000 uM using p-nitrophenyl glycoside as substrate by spectrometric assay relative to control.
For test [18], the target named is T1, Lysosomal alpha-glucosidase. Put plainly: Inhibition of human lysosomal alpha glucosidase assessed as release of p-nitrophenol using p-nitrophenyl glycoside as substrate by spectrometric assay.
Test [19] in a line: Inhibition of yeast alpha-glucosidase assessed as release of p-nitrophenol using p-nitrophenyl glycoside as substrate by spectrometric assay. The arrangement: species or system Saccharomyces cerevisiae.
The nature of test [20]: Inhibition of rice alpha-glucosidase assessed as release of p-nitrophenol using p-nitrophenyl glycoside as substrate by spectrometric assay. The arrangement: species or system Oryza sativa.

Chain of Sucrase-isomaltase, intestinal (P23739 1-1013 limits assumed): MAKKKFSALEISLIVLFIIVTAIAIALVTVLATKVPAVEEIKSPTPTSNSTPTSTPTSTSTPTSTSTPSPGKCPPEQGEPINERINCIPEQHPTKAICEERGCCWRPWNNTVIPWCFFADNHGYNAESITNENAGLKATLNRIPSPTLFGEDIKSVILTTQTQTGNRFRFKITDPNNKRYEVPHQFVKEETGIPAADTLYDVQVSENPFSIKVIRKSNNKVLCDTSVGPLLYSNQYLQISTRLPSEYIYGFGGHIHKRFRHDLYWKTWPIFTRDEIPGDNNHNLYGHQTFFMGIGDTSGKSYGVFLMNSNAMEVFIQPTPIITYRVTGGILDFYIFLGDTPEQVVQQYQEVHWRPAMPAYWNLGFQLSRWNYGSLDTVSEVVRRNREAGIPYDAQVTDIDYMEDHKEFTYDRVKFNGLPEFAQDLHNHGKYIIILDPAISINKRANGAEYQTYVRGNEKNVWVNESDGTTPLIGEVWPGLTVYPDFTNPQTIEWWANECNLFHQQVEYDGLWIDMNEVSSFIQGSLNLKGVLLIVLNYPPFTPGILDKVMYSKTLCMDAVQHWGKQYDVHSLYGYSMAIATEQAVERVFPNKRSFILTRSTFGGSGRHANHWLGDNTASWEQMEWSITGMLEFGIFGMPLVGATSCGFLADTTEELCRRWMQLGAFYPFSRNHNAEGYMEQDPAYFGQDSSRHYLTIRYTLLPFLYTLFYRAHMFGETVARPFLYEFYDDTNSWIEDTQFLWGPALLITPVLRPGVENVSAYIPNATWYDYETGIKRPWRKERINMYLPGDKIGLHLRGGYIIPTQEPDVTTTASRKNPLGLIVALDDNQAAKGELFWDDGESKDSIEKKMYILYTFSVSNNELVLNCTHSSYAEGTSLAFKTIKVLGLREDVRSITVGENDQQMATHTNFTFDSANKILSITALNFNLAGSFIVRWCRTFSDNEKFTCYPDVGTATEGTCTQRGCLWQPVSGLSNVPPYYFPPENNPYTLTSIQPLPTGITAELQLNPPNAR
Chain of Sucrase-isomaltase, intestinal (P23739 1014-1841 limits assumed): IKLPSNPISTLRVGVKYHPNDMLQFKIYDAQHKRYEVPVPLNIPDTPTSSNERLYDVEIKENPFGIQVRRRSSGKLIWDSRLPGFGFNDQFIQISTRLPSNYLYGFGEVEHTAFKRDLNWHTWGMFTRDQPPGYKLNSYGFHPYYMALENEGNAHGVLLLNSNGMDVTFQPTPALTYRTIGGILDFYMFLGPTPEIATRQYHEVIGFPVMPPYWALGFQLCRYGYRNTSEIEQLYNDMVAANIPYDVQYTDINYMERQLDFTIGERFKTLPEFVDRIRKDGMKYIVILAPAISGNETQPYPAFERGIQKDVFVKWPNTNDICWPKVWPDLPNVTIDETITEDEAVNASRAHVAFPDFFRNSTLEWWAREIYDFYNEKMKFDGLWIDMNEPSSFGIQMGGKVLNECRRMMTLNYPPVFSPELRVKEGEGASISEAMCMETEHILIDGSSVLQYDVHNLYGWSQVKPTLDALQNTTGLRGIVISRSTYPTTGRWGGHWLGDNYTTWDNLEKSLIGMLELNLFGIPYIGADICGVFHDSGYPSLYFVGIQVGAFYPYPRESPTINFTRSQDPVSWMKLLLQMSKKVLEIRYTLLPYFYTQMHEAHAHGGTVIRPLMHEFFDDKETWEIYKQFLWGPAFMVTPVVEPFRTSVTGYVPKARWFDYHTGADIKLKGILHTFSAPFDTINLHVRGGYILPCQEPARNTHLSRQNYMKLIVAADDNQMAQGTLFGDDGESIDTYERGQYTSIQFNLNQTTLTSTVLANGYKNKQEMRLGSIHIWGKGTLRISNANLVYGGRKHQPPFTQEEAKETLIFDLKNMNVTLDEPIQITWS
Chain of Alpha-galactosidase (Coffea arabica) (Q42656 16-378 limits assumed): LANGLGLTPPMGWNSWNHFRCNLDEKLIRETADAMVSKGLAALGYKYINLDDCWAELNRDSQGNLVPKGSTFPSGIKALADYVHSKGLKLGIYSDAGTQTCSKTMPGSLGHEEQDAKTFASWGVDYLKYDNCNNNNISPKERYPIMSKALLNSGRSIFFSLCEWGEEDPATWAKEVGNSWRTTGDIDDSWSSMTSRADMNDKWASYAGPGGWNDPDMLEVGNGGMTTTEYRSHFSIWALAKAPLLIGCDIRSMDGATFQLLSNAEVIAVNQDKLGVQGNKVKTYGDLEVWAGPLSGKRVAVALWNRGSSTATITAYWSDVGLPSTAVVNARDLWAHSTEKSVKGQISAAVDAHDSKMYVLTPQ

Consider `COc1ccc([C@]2(CO)NC[C@@H](O)[C@@H]2O)cc1`, for which the inhibition (usually the relative decrease from the control value, in per cent) amounted to 3% in [1]; 2.7% in test [3]; 22% in [4]; 37.8% in [5]; 40.2% in test [6]; 33.5% in [7]. The inhibition in [8] came to 7.5%; in [9], 41%; in [10], 0.2%; in [11] it was 0%; in test [12], 2.7%; in test [13] it was 0%. For the same compound, the inhibition came out at 0% in test [14], 25% in test [15] and 5.9% in [16]. The IC50 (as a rule, the concentration needed to halve the response being measured) in test [2] was 107000 nM.
For the compound `COc1cccc([C@]2(CO)NC[C@@H](O)[C@@H]2O)c1`, the inhibition is 12.9% in test [1]; 0% in test [17]; 7.8% in test [3]; 30% in test [7]; 1.6% in test [8]; 38.9% in [9]. Besides, the inhibition was 0% in test [10]; 0% in test [11]; 0% in test [12]; 8.3% in test [13]; 0% in test [14]; 0% in test [15]. The inhibition in test [16] was found to be 10.7%. For the same compound, the IC50 in test [2] amounted to 1700 nM; in [18], 776 µM; in test [19], 9.8 µM; in test [20] it was 758 µM.
Take `OC[C@@]1(c2ccc(O)cc2)NC[C@@H](O)[C@@H]1O`: the inhibition in test [1] was found to be 4.5%; in test [17], 0%; in test [3] it was 8.7%; in test [7], 10.8%; in [8] it was 1.2%; in [9], 20.4%. In addition, the inhibition came to 2.2% in [10]; 0% in [11]; 0% in [12]; 9.2% in test [13]; 5.5% in test [14]; 0.4% in test [15]. Also, the inhibition in [16] turned out to be 19.9%. The IC50 stood at 740 nM in test [2], 372 µM in [18], 64 µM in [19] and 337 µM in [20].
For `OC[C@@]1(c2cccc(F)c2)NC[C@@H](O)[C@@H]1O`, the inhibition in test [1] was 3.8%; in test [17] it was 0%; in [3], 0.9%; in test [4], 41.8%; in [5], 1.4%; in test [6], 10.3%. The inhibition in [7] came out at 16.7%; in test [8], 0%; in test [9] it was 21.7%; in test [10], 0%; in test [11], 0%; in [12], 0%. In addition, the inhibition was found to be 8.3% in test [13], 0% in [14], 0% in test [15] and 26.2% in test [16]. The IC50 in test [2] is 6500 nM.
For the compound `OC[C@@]1(c2ccc(F)cc2)NC[C@@H](O)[C@@H]1O`, the inhibition amounted to 4.4% in [1]; 25.8% in test [17]; 0.6% in test [3]; 8.4% in test [7]; 0% in test [8]; 8.6% in test [9]. Moreover, the inhibition in [10] stood at 6.6%; in test [11] it was 0.8%; in [12], 0%; in [13], 0%; in [14] it was 0%; in [15], 1.5%. Besides, the inhibition in test [16] came out at 16.8%. Further, the IC50 amounted to 200 nM in test [2], 714 µM in test [18], 70 µM in [19] and 646 µM in [20].
On to `OC[C@]1(c2ccc(O)cc2)NC[C@H](O)[C@H]1O`, for which the inhibition in test [1] was 12.9%; in [17], 1.2%; in [3], 14.8%; in [7], 27.6%; in [8], 3.6%; in test [9], 40.3%. The inhibition in [10] was determined as 3.4%; in test [11], 0%; in [12], 0%; in test [13], 11.5%; in test [14], 4.5%; in [15], 1.8%. In addition, the inhibition in test [16] came out at 12.6%. Also, the IC50 amounted to 180 nM in test [2], 376 µM in test [18], 12 µM in [19] and 285 µM in [20].
Take `Cc1ccc([C@@]2(CO)NC[C@H](O)[C@H]2O)cc1`: the inhibition was determined as 0% in [1]; 12.9% in test [17]; 7.8% in [3]; 45.9% in test [6]; 16.7% in test [7]; 0% in test [8]. The inhibition worked out at 22.6% in test [9]; 0% in test [10]; 0% in test [11]; 3.3% in test [12]; 8.3% in [13]; 7.4% in [14]. The inhibition in [15] was determined as 0%; in [16] it was 8.7%. Besides, the IC50 in test [2] was determined as 1000 nM; in test [19] it was 57 µM; in test [20] it was 697 µM.
As for `C[C@]1(CO)NC[C@@H](O)[C@@H]1O`, the inhibition in test [1] came out at 3.9%; in [3], 6.8%; in test [4], 12.4%; in [7], 35.7%; in test [8], 0.6%; in test [9], 37.6%. Besides, the inhibition in test [10] was 3.8%; in test [11], 0%; in test [12], 10.9%; in test [13] it was 4.7%; in [14], 10.1%; in [15], 4.8%. Further, in test [16], the inhibition is 4.3%. For the same compound, the concentration for half-maximal inhibition (IC50) in test [2] came to 2200 nM; in test [18], 16 µM.

Values taken from ChEMBL document CHEMBL5131499, “Design, synthesis and glycosidase inhibition of C-4 branched LAB and DAB derivatives” (Eur J Med Chem, 2022).
